# Results reported in article PMC5218480 (PLoS ONE, 2017).
# Test system: MV-4-11 cells
# Test: Gene expression microarray analysis (Affymetrix PrimeView) and GSEA
# Type: cell-based, human
# Design: RFU PODN (11730768_x_at) / Fold change /veh PODN (11730768_x_at) / RFU LINC00158 (11744669_a_at) / Fold change /veh LINC00158 (11744669_a_at) / RFU DUSP10 (11751237_a_at) / Fold change /veh DUSP10 (11751237_a_at) / RFU ID3 (11757404_x_at) / Fold change /veh ID3 (11757404_x_at) / RFU PLEKHG5 (11737974_s_at) / Fold change /veh PLEKHG5 (11737974_s_at) / RFU LRRC4B (11730491_at) / Fold change /veh LRRC4B (11730491_at) / RFU GIMAP4 (11747438_a_at) / Fold change /veh GIMAP4 (11747438_a_at) / RFU KRT8 (11758183_x_at) / Fold change /veh KRT8 (11758183_x_at) / RFU CNN1 (11734310_a_at) / Fold change /veh CNN1 (11734310_a_at) / RFU VPS37D (11726825_at) / Fold change /veh VPS37D (11726825_at) / RFU C10orf10 (11716522_x_at) / Fold change /veh C10orf10 (11716522_x_at) / RFU KIR2DL2 /// KIR2DL4 /// KIR2DL5A /// KIR2DL5B /// KIR2DS1 /// KIR2DS2 /// KIR2DS3 /// KIR2DS4 /// KIR3DL3 /// KIR3DL3 /// KIR3DS1 (11738374_at) / Fold change /veh KIR2DL2 /// KIR2DL4 /// KIR2DL5A /// KIR2DL5B /// KIR2DS1 /// KIR2DS2 /// KIR2DS3 /// KIR2DS4 /// KIR3DL3 /// KIR3DL3 /// KIR3DS1 (11738374_at) / RFU C1QL1 (11718748_at) / Fold change /veh C1QL1 (11718748_at) / RFU TMPRSS4 (11747572_a_at) / Fold change /veh TMPRSS4 (11747572_a_at) / RFU HAMP (11756126_x_at) / Fold change /veh HAMP (11756126_x_at) / RFU RNFT2 (11725882_a_at) / Fold change /veh RNFT2 (11725882_a_at) / RFU NR4A2 (11747474_a_at) / Fold change /veh NR4A2 (11747474_a_at) / RFU ABCC12 (11746883_a_at) / Fold change /veh ABCC12 (11746883_a_at) / RFU TMEM136 (11760407_x_at) / Fold change /veh TMEM136 (11760407_x_at) / RFU CLDN22 /// WWC2 (11732394_at) / Fold change /veh CLDN22 /// WWC2 (11732394_at) / RFU HLA-DPB1 (11760878_x_at) / Fold change /veh HLA-DPB1 (11760878_x_at) / RFU SPINT1 (11716480_a_at) / Fold change /veh SPINT1 (11716480_a_at) / RFU GAP43 (11754022_s_at) / Fold change /veh GAP43 (11754022_s_at) / RFU A4GNT (11735810_at) / Fold change /veh A4GNT (11735810_at) / RFU PRB3 (11715151_x_at) / Fold change /veh PRB3 (11715151_x_at) / RFU TUBB4B (11761932_at) / Fold change /veh TUBB4B (11761932_at) / RFU CAPN14 (11732068_a_at) / Fold change /veh CAPN14 (11732068_a_at) / RFU TMCC2 (11721928_a_at) / Fold change /veh TMCC2 (11721928_a_at) / RFU IRGQ (11745062_a_at) / Fold change /veh IRGQ (11745062_a_at) / RFU FAM174B (11720279_a_at) / Fold change /veh FAM174B (11720279_a_at) / RFU TMPRSS4 (11748680_a_at) / Fold change /veh TMPRSS4 (11748680_a_at) / RFU FAM212B (11763350_a_at) / Fold change /veh FAM212B (11763350_a_at) / RFU PLEKHG5 (11743358_a_at) / Fold change /veh PLEKHG5 (11743358_a_at) / RFU ZSCAN30 (11745921_a_at) / Fold change /veh ZSCAN30 (11745921_a_at) / RFU CMKLR1 (11741424_a_at) / Fold change /veh CMKLR1 (11741424_a_at) / RFU LOC101060620 /// MAPK8IP1 (11723275_at) / Fold change /veh LOC101060620 /// MAPK8IP1 (11723275_at) / RFU SPTSSB (11747773_x_at) / Fold change /veh SPTSSB (11747773_x_at) / RFU PRSS12 (11739890_at) / Fold change /veh PRSS12 (11739890_at) / RFU BIN1 (11741810_x_at) / Fold change /veh BIN1 (11741810_x_at) / RFU WNT11 (11732464_a_at) / Fold change /veh WNT11 (11732464_a_at) / RFU C10orf10 (11716521_a_at) / Fold change /veh C10orf10 (11716521_a_at) / RFU C5orf56 (11738089_at) / Fold change /veh C5orf56 (11738089_at) / RFU CYB561 (11721691_x_at) / Fold change /veh CYB561 (11721691_x_at) / RFU ANKRD19P (11752326_a_at) / Fold change /veh ANKRD19P (11752326_a_at) / RFU OR2T12 /// OR2T33 /// OR2T8 (11738714_s_at) / Fold change /veh OR2T12 /// OR2T33 /// OR2T8 (11738714_s_at) / RFU VCAN (11748164_a_at) / Fold change /veh VCAN (11748164_a_at) / RFU JSRP1 (11732532_at) / Fold change /veh JSRP1 (11732532_at) / RFU KRTAP10-11 (11738290_x_at) / Fold change /veh KRTAP10-11 (11738290_x_at) / RFU MYO3A (11730013_a_at) / Fold change /veh MYO3A (11730013_a_at) / RFU EBF3 (11725865_a_at) / Fold change /veh EBF3 (11725865_a_at) / RFU CAMK2N1 (11719241_x_at) / Fold change /veh CAMK2N1 (11719241_x_at) / RFU C5orf56 (11738088_a_at) / Fold change /veh C5orf56 (11738088_a_at) / RFU OLFML3 (11715873_a_at) / Fold change /veh OLFML3 (11715873_a_at) / RFU LOC100653217 /// NTM (11731650_a_at) / Fold change /veh LOC100653217 /// NTM (11731650_a_at) / RFU MAPK11 (11762145_a_at) / Fold change /veh MAPK11 (11762145_a_at) / RFU FIZ1 (11724087_x_at) / Fold change /veh FIZ1 (11724087_x_at) / RFU OASL (11726364_x_at) / Fold change /veh OASL (11726364_x_at) / RFU SOX15 (11748057_x_at) / Fold change /veh SOX15 (11748057_x_at) / RFU CD79A (11719716_a_at) / Fold change /veh CD79A (11719716_a_at) / RFU HIST1H1D (11736915_at) / Fold change /veh HIST1H1D (11736915_at) / RFU CASKIN2 (11723855_a_at) / Fold change /veh CASKIN2 (11723855_a_at) / RFU LOC730098 (11760151_x_at) / Fold change /veh LOC730098 (11760151_x_at) / RFU OR4N2 (11742367_at) / Fold change /veh OR4N2 (11742367_at) / RFU PRRT2 (11749266_a_at) / Fold change /veh PRRT2 (11749266_a_at) / RFU SNX32 (11753110_a_at) / Fold change /veh SNX32 (11753110_a_at) / RFU CDHR5 (11726645_a_at) / Fold change /veh CDHR5 (11726645_a_at) / RFU RCAN1 (11760418_a_at) / Fold change /veh RCAN1 (11760418_a_at) / RFU FAM167A (11723789_a_at) / Fold change /veh FAM167A (11723789_a_at) / RFU FAM26E (11764081_at) / Fold change /veh FAM26E (11764081_at) / RFU ISYNA1 (11749810_s_at) / Fold change /veh ISYNA1 (11749810_s_at) / RFU ACY1 (11761880_at) / Fold change /veh ACY1 (11761880_at) / RFU 11764098_at / Fold change /veh 11764098_at / RFU SAMD14 (11745864_x_at) / Fold change /veh SAMD14 (11745864_x_at) / RFU NPB (11741838_a_at) / Fold change /veh NPB (11741838_a_at) / RFU TMPRSS6 (11731388_a_at) / Fold change /veh TMPRSS6 (11731388_a_at) / RFU KRTAP10-2 (11738614_at) / Fold change /veh KRTAP10-2 (11738614_at) / RFU ARHGAP8 /// PRR5-ARHGAP8 (11727945_x_at) / Fold change /veh ARHGAP8 /// PRR5-ARHGAP8 (11727945_x_at) / RFU KRTAP5-7 /// NADSYN1 (11734609_at) / Fold change /veh KRTAP5-7 /// NADSYN1 (11734609_at) / RFU RASL12 (11751679_a_at) / Fold change /veh RASL12 (11751679_a_at) / RFU CDKN2B (11736163_a_at) / Fold change /veh CDKN2B (11736163_a_at) / RFU PRF1 (11729649_at) / Fold change /veh PRF1 (11729649_at) / RFU, ZNF638 /// ZNF638-IT1 / Fold change vs veh, ZNF638 /// ZNF638-IT1 / RFU, PANK3 / Fold change vs veh, PANK3 / RFU, SH3YL1 / Fold change vs veh, SH3YL1 / RFU, ZEB2 / Fold change vs veh, ZEB2 / RFU, NRIP1 / Fold change vs veh, NRIP1 / RFU, PTTG1IP / Fold change vs veh, PTTG1IP / RFU, CAPN2 / Fold change vs veh, CAPN2 / RFU, MED14 / Fold change vs veh, MED14 / RFU, SNORA58 / Fold change vs veh, SNORA58 / RFU, C1orf63 / Fold change vs veh, C1orf63 / RFU, LRRFIP1 / Fold change vs veh, LRRFIP1 / RFU, NDUFAF7 / Fold change vs veh, NDUFAF7 / RFU, SLC12A2 / Fold change vs veh, SLC12A2 / RFU, IBTK / Fold change vs veh, IBTK / RFU, ESF1 / Fold change vs veh, ESF1 / Fold change vs veh, TMEM50B / RFU, TAOK1 / Fold change vs veh, TAOK1 / RFU, ACBD3 / Fold change vs veh, ACBD3 / RFU, TMA16 / Fold change vs veh, TMA16 / RFU, RWDD3 / Fold change vs veh, RWDD3 / RFU, BCAT1 / Fold change vs veh, BCAT1 / RFU, EDEM3 / Fold change vs veh, EDEM3 / RFU, TMEM33 / Fold change vs veh, TMEM33 / RFU, WDR75 / Fold change vs veh, WDR75 / RFU, AHCTF1 / Fold change vs veh, AHCTF1 / RFU, TFRC / Fold change vs veh, TFRC / RFU, ZDHHC17 / Fold change vs veh, ZDHHC17 / RFU, NOM1 / Fold change vs veh, NOM1 / RFU, ARL8B / Fold change vs veh, ARL8B / RFU, ZBTB11 / Fold change vs veh, ZBTB11 / RFU, TAMM41 / Fold change vs veh, TAMM41 / RFU, KIAA1704 /// LOC100996395 / Fold change vs veh, KIAA1704 /// LOC100996395 / RFU, ING1 / Fold change vs veh, ING1 / RFU, TRMT61B / Fold change vs veh, TRMT61B / RFU, FUBP3 / Fold change vs veh, FUBP3 / RFU, TP53 / Fold change vs veh, TP53 / RFU, TNKS2 / Fold change vs veh, TNKS2 / RFU, ZFP14 / Fold change vs veh, ZFP14 / RFU, ACTR2 / Fold change vs veh, ACTR2 / RFU, PPP3R1 / Fold change vs veh, PPP3R1 / RFU, PIK3R1 / Fold change vs veh, PIK3R1 / RFU, HNRNPA1 / Fold change vs veh, HNRNPA1 / RFU, RNF170 / Fold change vs veh, RNF170 / RFU, ZNF28 / Fold change vs veh, ZNF28 / RFU, RNGTT / Fold change vs veh, RNGTT / RFU, OGT / Fold change vs veh, OGT / RFU, BRD1 / Fold change vs veh, BRD1 / RFU, MARS / Fold change vs veh, MARS / RFU, ZNF655 / Fold change vs veh, ZNF655 / RFU, FAHD1 / Fold change vs veh, FAHD1 / RFU, BDP1 / Fold change vs veh, BDP1 / RFU, LRRCC1 / Fold change vs veh, LRRCC1 / RFU, ARID1A / Fold change vs veh, ARID1A / RFU, ZNF146 / Fold change vs veh, ZNF146 / RFU, ZNF330 / Fold change vs veh, ZNF330 / RFU, GPN3 / Fold change vs veh, GPN3 / RFU, C9orf123 / Fold change vs veh, C9orf123 / RFU, N4BP2L2 / Fold change vs veh, N4BP2L2 / RFU, ARFIP1 / Fold change vs veh, ARFIP1 / RFU, FAM179B / Fold change vs veh, FAM179B / RFU, BCL10 / Fold change vs veh, BCL10 / RFU, UHRF1BP1L / Fold change vs veh, UHRF1BP1L / RFU, BET1 / Fold change vs veh, BET1 / RFU, CNOT2 / Fold change vs veh, CNOT2 / RFU, ZNF268 / Fold change vs veh, ZNF268 / Fold change vs veh, ZNF507 / RFU, DGCR2 / Fold change vs veh, DGCR2 / RFU, WDSUB1 / Fold change vs veh, WDSUB1 / Fold change vs veh, HSP90B1 /// MIR3652 / RFU, ADSS / Fold change vs veh, ADSS / RFU, GK / Fold change vs veh, GK / RFU, ZNF148 / Fold change vs veh, ZNF148 / RFU, TAF9 / Fold change vs veh, TAF9 / RFU, SLC1A5 / Fold change vs veh, SLC1A5 / RFU, SLMO2 / Fold change vs veh, SLMO2 / RFU, ABCC4 / Fold change vs veh, ABCC4 / RFU, LOC101060439 /// RAP1B / Fold change vs veh, LOC101060439 /// RAP1B / RFU, RFX7 / Fold change vs veh, RFX7 / RFU, GTPBP10 / Fold change vs veh, GTPBP10 / RFU, CNEP1R1 / Fold change vs veh, CNEP1R1 / RFU, BIVM-ERCC5 /// ERCC5 / Fold change vs veh, BIVM-ERCC5 /// ERCC5 / RFU, ILF3 / Fold change vs veh, ILF3 / RFU 11762660_at / Fold change /veh 11762660_at / RFU VCAN (11757783_s_at) / Fold change /veh VCAN (11757783_s_at) / RFU DDX43 (11728927_at) / Fold change /veh DDX43 (11728927_at) / RFU KRT8 (11758188_x_at) / Fold change /veh KRT8 (11758188_x_at) / RFU NKD1 (11759106_at) / Fold change /veh NKD1 (11759106_at) / RFU SRD5A1 (11742802_a_at) / Fold change /veh SRD5A1 (11742802_a_at) / RFU TPSAB1 /// TPSB2 (11721975_s_at) / Fold change /veh TPSAB1 /// TPSB2 (11721975_s_at) / RFU GSTM3 (11746129_a_at) / Fold change /veh GSTM3 (11746129_a_at) / RFU IL23R (11737362_x_at) / Fold change /veh IL23R (11737362_x_at) / RFU TMEM51 (11727254_a_at) / Fold change /veh TMEM51 (11727254_a_at) / RFU PIWIL2 (11732686_x_at) / Fold change /veh PIWIL2 (11732686_x_at) / RFU ORM1 (11744905_x_at) / Fold change /veh ORM1 (11744905_x_at) / RFU CCDC152 (11743942_at) / Fold change /veh CCDC152 (11743942_at) / RFU ECM1 (11717891_a_at) / Fold change /veh ECM1 (11717891_a_at) / RFU IL23R (11748794_a_at) / Fold change /veh IL23R (11748794_a_at) / RFU TNFAIP8L3 (11732012_x_at) / Fold change /veh TNFAIP8L3 (11732012_x_at) / RFU MBOAT4 (11741988_at) / Fold change /veh MBOAT4 (11741988_at) / RFU 11764193_at / Fold change /veh 11764193_at / RFU TMEM53 (11763286_at) / Fold change /veh TMEM53 (11763286_at) / RFU MAGEB2 (11727129_at) / Fold change /veh MAGEB2 (11727129_at) / RFU TMEM200A (11744735_a_at) / Fold change /veh TMEM200A (11744735_a_at) / RFU CCDC152 (11751479_a_at) / Fold change /veh CCDC152 (11751479_a_at) / RFU FAM211A (11726209_a_at) / Fold change /veh FAM211A (11726209_a_at) / RFU RGS16 (11746705_a_at) / Fold change /veh RGS16 (11746705_a_at) / RFU VCAN (11755009_s_at) / Fold change /veh VCAN (11755009_s_at) / RFU RHOB (11743442_s_at) / Fold change /veh RHOB (11743442_s_at) / RFU RGS16 (11720943_a_at) / Fold change /veh RGS16 (11720943_a_at) / RFU RGS16 (11720944_at) / Fold change /veh RGS16 (11720944_at) / RFU, VPS4B / Fold change vs veh, VPS4B / RFU, CREB1 / Fold change vs veh, CREB1 / RFU, DNAJC13 / Fold change vs veh, DNAJC13 / RFU, GNAQ / Fold change vs veh, GNAQ / RFU, CDK5R1 / Fold change vs veh, CDK5R1 / RFU, ZRANB3 / Fold change vs veh, ZRANB3 / RFU, CUL4A / Fold change vs veh, CUL4A / RFU, CCNY / Fold change vs veh, CCNY / RFU, UFL1 / Fold change vs veh, UFL1 / RFU, COG3 / Fold change vs veh, COG3 / RFU, DIAPH2 / Fold change vs veh, DIAPH2 / RFU, SKA2 / Fold change vs veh, SKA2 / RFU, AFF3 / Fold change vs veh, AFF3 / RFU, LMF1 / Fold change vs veh, LMF1 / RFU, IPO11 / Fold change vs veh, IPO11 / RFU, DFFB / Fold change vs veh, DFFB / RFU, FOXP1 / Fold change vs veh, FOXP1 / RFU, CARD8 / Fold change vs veh, CARD8 / RFU, STRN3 / Fold change vs veh, STRN3 / RFU, ADK / Fold change vs veh, ADK / RFU, RASSF2 / Fold change vs veh, RASSF2 / RFU, WIPF1 / Fold change vs veh, WIPF1 / RFU, LARP1B / Fold change vs veh, LARP1B / RFU, RASA1 / Fold change vs veh, RASA1 / RFU, RB1 / Fold change vs veh, RB1 / RFU, PPFIA1 / Fold change vs veh, PPFIA1 / RFU, MAT2A / Fold change vs veh, MAT2A / RFU, CCT5 / Fold change vs veh, CCT5 / RFU, WDR92 / Fold change vs veh, WDR92 / RFU, CUX1 / Fold change vs veh, CUX1 / RFU, TTC7A / Fold change vs veh, TTC7A / RFU, TMEM135 / Fold change vs veh, TMEM135 / RFU, DEPTOR / Fold change vs veh, DEPTOR / RFU, CPM / Fold change vs veh, CPM / RFU, DNAJB6 / Fold change vs veh, DNAJB6 / RFU, CACNA2D3 / Fold change vs veh, CACNA2D3 / RFU, DTX4 / Fold change vs veh, DTX4 / RFU, TFCP2 / Fold change vs veh, TFCP2 / RFU, GMCL1 /// GMCL1P1 / Fold change vs veh, GMCL1 /// GMCL1P1 / RFU, AEBP2 / Fold change vs veh, AEBP2 / RFU, SNHG1 /// SNORD22 /// SNORD25 /// SNORD26 /// SNORD27 /// SNORD28 /// SNORD29 /// SNORD31 / Fold change vs veh, SNHG1 /// SNORD22 /// SNORD25 /// SNORD26 /// SNORD27 /// SNORD28 /// SNORD29 /// SNORD31 / Fold change (Aza/veh), C12orf56 (ProbeSet 11735607_a_at) / Fold change (ACY-1035/veh), C12orf56 (ProbeSet 11735607_a_at) / Fold change (Aza/veh), FGFR1OP (ProbeSet 11751329_s_at) / Fold change (ACY-1035/veh), FGFR1OP (ProbeSet 11751329_s_at) / Fold change (Aza/veh), VPS36 (ProbeSet 11739960_a_at) / Fold change (ACY-1035/veh), VPS36 (ProbeSet 11739960_a_at) / RFU SYPL1 (11715823_x_at) / Fold change /veh SYPL1 (11715823_x_at) / RFU IGFBP7 (11715501_s_at) / Fold change /veh IGFBP7 (11715501_s_at) / RFU REEP3 (11722064_at) / Fold change /veh REEP3 (11722064_at) / RFU IGLL1 (11728026_x_at) / Fold change /veh IGLL1 (11728026_x_at): dose or concentration left out as unconfirmed
# Details: ProbeSet 11724877_a_at; LIST D
structure (smiles),measurement,value
Nc1ncn([C@@H]2O[C@H](CO)[C@@H](O)[C@H]2O)c(=O)n1 [azacitidine],"Fold change vs veh, AEBP2",0.82
